# According to patent US8497245B2, “Trypsin-like serine protease inhibitors, their preparation and use as selective inhibitors of the clotting factors IIa and Xa” (The Medicines Company (Leipzig) GmbH, priority 2010, dated 2013):
# Molecular target: T1, Human plasma kallikrein (h PK) (Homo sapiens, UniProt P03952)
# T1 construct: purchased Enzyme Research Laboratories
# Test: Inhibition of human plasma kallikrein (reference enzyme)
# Assay type: biochemical
# Conditions: S2302 substrate
# Method: (§1) The inhibitory effect against the individual purified enzymes was determined in analogy to a previously disclosed method (Stürzebecher et al., J. Med. Chem., 40, 3091-3099 (1997)).
# (§2) The release of p-nitroaniline (p-NA, the chromogenic product of the proteolytic activity), was determined by change in absorbance at 405 nm. The equilibrium rates were used to calculate the inhibitor/enzyme dissociation constant (Ki values) by parameter fitting in accordance with the rate equation for competitive inhibition using GraFit (version 4 from Erithacus). The results are reported as Ki values (nanomolar) in table 7 and are the average of at least three determinations.
# (§3) Dissociation constants were calculated as described herein.
# T1 sequence (P03952 391-638 limits assumed): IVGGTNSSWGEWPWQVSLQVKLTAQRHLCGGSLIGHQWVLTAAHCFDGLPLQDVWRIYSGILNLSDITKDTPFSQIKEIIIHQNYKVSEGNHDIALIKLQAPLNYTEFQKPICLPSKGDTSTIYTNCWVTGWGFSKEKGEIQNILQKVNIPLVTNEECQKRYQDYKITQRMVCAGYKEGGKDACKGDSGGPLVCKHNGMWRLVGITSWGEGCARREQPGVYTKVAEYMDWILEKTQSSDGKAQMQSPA
# T1 sequence (P03952 20-390 partner limits assumed): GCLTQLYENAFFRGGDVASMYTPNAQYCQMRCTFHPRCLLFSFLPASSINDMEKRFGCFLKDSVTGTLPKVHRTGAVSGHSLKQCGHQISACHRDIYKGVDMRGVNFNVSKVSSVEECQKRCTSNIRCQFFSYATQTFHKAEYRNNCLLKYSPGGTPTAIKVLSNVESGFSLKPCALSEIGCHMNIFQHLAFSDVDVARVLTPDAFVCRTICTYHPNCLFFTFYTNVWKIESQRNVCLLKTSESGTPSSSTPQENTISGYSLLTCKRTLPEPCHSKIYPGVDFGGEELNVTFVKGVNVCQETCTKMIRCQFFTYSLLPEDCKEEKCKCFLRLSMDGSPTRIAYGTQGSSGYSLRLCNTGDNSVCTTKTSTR
row,Ki,Structure (SMILES)
1,0.432 µM,NCc1ccc(Cl)cc1CNC(=O)CC[C@@H](NS(=O)(=O)Cc1ccccc1)C(=O)N1CCC[C@H]1C(=O)NCc1cc(Cl)ccc1CN [Compound 2.30]
2,0.337 µM,NCc1ccc(Cl)cc1CNC(=O)[C@@H]1CCCN1C(=O)[C@@H](CC(=O)N1CCCC1)NS(=O)(=O)Cc1ccccc1 [Compound 2.8]

# Molecular target: T2, Human tissue-type plasminogen activator (h t-PA) (Homo sapiens, UniProt P00750)
# T2 construct: purchased Boehringer Ingelheim Actilyse
# T2 sequence (P00750 36-562): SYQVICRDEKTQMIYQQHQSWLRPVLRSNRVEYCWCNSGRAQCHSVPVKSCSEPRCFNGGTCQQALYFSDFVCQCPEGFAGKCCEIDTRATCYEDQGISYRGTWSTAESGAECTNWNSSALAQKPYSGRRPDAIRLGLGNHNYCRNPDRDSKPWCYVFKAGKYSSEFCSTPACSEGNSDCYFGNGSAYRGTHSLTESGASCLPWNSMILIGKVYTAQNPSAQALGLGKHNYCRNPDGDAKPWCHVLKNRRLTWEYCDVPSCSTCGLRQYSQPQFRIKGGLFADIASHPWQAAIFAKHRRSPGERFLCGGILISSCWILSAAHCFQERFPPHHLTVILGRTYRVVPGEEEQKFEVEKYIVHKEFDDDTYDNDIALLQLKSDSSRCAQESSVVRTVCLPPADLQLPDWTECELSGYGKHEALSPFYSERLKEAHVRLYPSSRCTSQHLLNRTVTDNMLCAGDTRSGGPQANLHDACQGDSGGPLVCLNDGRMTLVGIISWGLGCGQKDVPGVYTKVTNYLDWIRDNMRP
# Test: Inhibition of human tissue-type plasminogen activator (reference enzyme)
# Assay type: biochemical
# Conditions: Pefachrome tPA substrate; read-out: Ki h t-PA
# Method: The equilibrium rates were used to calculate the inhibitor/enzyme dissociation constant (Ki values) by parameter fitting in accordance with the rate equation for competitive inhibition using GraFit (version 4 from Erithacus).
# as §3
row,Ki,Structure (SMILES)
1,> 20 µM,NCc1ccc(Cl)cc1CNC(=O)CC[C@@H](NS(=O)(=O)Cc1ccccc1)C(=O)N1CCC[C@H]1C(=O)NCc1cc(Cl)ccc1CN [Compound 2.30]
2,> 10 µM,NCc1ccc(Cl)cc1CNC(=O)[C@@H]1CCCN1C(=O)[C@@H](CC(=O)N1CCCC1)NS(=O)(=O)Cc1ccccc1 [Compound 2.8]

# Molecular target: T3, Human plasmin (h plasmin) (Homo sapiens, UniProt P00747)
# T3 construct: purchased Calbiochem
# T3 sequence (P00747 581-810 limits assumed): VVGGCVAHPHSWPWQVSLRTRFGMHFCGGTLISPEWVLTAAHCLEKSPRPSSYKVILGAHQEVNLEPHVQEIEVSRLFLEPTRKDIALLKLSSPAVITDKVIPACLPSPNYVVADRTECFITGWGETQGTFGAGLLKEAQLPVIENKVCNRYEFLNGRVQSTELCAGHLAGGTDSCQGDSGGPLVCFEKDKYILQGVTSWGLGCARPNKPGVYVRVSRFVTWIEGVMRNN
# T3 sequence (P00747 97-580 partner limits assumed): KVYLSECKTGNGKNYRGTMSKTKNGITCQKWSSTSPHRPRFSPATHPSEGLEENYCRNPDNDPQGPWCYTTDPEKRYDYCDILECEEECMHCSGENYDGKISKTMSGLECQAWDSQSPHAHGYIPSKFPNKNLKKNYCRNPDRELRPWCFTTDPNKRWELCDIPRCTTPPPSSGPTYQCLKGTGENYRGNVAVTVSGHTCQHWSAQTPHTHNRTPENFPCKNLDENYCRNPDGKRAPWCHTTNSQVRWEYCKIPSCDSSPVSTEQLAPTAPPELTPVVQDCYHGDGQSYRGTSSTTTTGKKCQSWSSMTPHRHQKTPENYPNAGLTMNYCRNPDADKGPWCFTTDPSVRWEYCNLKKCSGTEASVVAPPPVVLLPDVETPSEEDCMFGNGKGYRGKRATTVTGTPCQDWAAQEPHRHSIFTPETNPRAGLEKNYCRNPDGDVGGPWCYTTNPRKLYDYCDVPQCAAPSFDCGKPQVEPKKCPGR
# Test: Inhibition of human plasmin (reference enzyme)
# Assay type: biochemical
# Conditions: Chromozym PL substrate
# Method: as §1, §2, §3
row,Ki,Structure (SMILES)
1,> 5 µM,NCc1ccc(Cl)cc1CNC(=O)CC[C@@H](NS(=O)(=O)Cc1ccccc1)C(=O)N1CCC[C@H]1C(=O)NCc1cc(Cl)ccc1CN [Compound 2.30]
2,> 20 µM,NCc1ccc(Cl)cc1CNC(=O)[C@@H]1CCCN1C(=O)[C@@H](CC(=O)N1CCCC1)NS(=O)(=O)Cc1ccccc1 [Compound 2.8]

# Molecular target: T4, human factor IIa (human alpha-thrombin) (Homo sapiens, UniProt P00734)
# T4 construct: human alpha-thrombin from Enzyme Research Laboratories; purchased Enzyme Research Laboratories
# Test: Inhibition constants for human factor IIa, chromogenic substrate assay
# Assay type: biochemical
# Conditions: 25° C., Pefachrome tPA substrate, average of at least three determinations; read-out: Ki h FIIa
# Method: as §1
# (§4) 200 μL of TBS (0.05 M trishydroxymethylaminomethane; 0.154 M NaCl, 2% ethanol, pH 8.0)
# as §2
row,Ki,Structure (SMILES)
1,0.00099 µM,NCc1ccc(Cl)cc1CNC(=O)CC[C@@H](NS(=O)(=O)Cc1ccccc1)C(=O)N1CCC[C@H]1C(=O)NCc1cc(Cl)ccc1CN [Compound 2.30]
2,0.00021 µM,NCc1ccc(Cl)cc1CNC(=O)[C@@H]1CCCN1C(=O)[C@@H](CC(=O)N1CCCC1)NS(=O)(=O)Cc1ccccc1 [Compound 2.8]

# Molecular target: T5, Human Activated Protein C (h aPC) (Homo sapiens, UniProt P04070)
# T5 construct: purchased Enzyme Research Laboratories
# T5 sequence (P04070 212-450 limits assumed): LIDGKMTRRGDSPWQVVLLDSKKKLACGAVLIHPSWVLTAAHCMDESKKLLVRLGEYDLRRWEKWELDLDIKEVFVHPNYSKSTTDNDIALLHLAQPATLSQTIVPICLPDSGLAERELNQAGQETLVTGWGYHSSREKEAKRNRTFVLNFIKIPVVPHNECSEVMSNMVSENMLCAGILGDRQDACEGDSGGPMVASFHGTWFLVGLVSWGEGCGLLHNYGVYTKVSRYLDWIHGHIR
# T5 sequence (P04070 43-197 partner limits assumed): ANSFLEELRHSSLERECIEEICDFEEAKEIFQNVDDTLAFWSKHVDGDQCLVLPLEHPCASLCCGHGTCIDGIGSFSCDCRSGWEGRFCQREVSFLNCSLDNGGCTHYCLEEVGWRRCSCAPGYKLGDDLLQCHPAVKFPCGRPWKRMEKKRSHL
# Test: Inhibition of human activated protein C (reference enzyme)
# Assay type: biochemical
# Conditions: Pefachrome PCa substrate
# Method: as §1, §2, §3
row,Ki,Structure (SMILES)
1,> 25 µM,NCc1ccc(Cl)cc1CNC(=O)CC[C@@H](NS(=O)(=O)Cc1ccccc1)C(=O)N1CCC[C@H]1C(=O)NCc1cc(Cl)ccc1CN [Compound 2.30]
2,> 40 µM,NCc1ccc(Cl)cc1CNC(=O)[C@@H]1CCCN1C(=O)[C@@H](CC(=O)N1CCCC1)NS(=O)(=O)Cc1ccccc1 [Compound 2.8]

# Molecular target: T6, human Factor Xa (Homo sapiens, UniProt P00742)
# T6 construct: human Factor Xa from Enzyme Research Laboratories; purchased Enzyme Research Laboratories
# T6 sequence (P00742 235-488 limits assumed): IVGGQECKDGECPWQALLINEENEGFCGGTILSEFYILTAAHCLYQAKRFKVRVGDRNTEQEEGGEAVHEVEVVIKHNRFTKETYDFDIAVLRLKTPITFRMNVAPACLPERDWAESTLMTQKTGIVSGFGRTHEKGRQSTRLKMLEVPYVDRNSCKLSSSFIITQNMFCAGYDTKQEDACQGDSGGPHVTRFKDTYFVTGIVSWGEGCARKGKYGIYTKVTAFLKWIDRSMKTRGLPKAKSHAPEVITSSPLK
# T6 sequence (P00742 41-179 partner limits assumed): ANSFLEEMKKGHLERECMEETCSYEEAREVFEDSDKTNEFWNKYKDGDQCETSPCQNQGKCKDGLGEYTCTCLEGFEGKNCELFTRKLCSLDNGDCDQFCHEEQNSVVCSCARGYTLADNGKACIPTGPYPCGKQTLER
# Test: Inhibition constants for human factor Xa, chromogenic substrate assay
# Assay type: biochemical
# Conditions: 25° C., Pefachrome FXa substrate, average of at least three determinations; read-out: Ki h FXa
# Method: as §1, §4, §2
row,Ki,Structure (SMILES)
1,0.0086 µM,NCc1ccc(Cl)cc1CNC(=O)CC[C@@H](NS(=O)(=O)Cc1ccccc1)C(=O)N1CCC[C@H]1C(=O)NCc1cc(Cl)ccc1CN [Compound 2.30]
2,0.00013 µM,NCc1ccc(Cl)cc1CNC(=O)[C@@H]1CCCN1C(=O)[C@@H](CC(=O)N1CCCC1)NS(=O)(=O)Cc1ccccc1 [Compound 2.8]

# Molecular target: T7, Subcomponent "r" of Human Complement Component 1 (h C1r) (Homo sapiens, UniProt P00736)
# T7 construct: purchased Calbiochem
# T7 sequence (P00736 464-705 limits assumed): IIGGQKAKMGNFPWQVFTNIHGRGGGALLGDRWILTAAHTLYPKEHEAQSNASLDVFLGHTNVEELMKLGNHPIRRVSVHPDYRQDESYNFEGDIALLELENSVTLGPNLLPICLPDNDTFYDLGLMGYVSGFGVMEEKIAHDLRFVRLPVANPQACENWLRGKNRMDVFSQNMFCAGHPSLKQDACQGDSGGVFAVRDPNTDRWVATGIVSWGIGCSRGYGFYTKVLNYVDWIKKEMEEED
# T7 sequence (P00736 18-463 partner limits assumed): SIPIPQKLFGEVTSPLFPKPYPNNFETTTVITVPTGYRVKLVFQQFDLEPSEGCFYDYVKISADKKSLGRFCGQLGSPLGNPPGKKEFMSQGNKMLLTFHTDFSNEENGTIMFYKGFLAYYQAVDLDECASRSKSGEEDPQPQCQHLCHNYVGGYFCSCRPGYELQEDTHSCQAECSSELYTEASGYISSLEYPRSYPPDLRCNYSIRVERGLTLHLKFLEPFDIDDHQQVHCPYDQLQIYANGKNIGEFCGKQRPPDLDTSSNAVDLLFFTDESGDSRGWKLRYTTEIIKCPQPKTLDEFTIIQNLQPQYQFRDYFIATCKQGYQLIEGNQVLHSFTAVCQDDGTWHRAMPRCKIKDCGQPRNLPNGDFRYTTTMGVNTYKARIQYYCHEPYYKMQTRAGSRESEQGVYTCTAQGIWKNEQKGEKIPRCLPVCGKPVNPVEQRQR
# Test: Inhibition of human C1r (reference enzyme)
# Assay type: biochemical
# Conditions: S-2314 substrate; read-out: Ki h Clr
# Method: as §1, §2, §3
row,Ki,Structure (SMILES)
1,> 30 µM,NCc1ccc(Cl)cc1CNC(=O)CC[C@@H](NS(=O)(=O)Cc1ccccc1)C(=O)N1CCC[C@H]1C(=O)NCc1cc(Cl)ccc1CN [Compound 2.30]
2,> 100 µM,NCc1ccc(Cl)cc1CNC(=O)[C@@H]1CCCN1C(=O)[C@@H](CC(=O)N1CCCC1)NS(=O)(=O)Cc1ccccc1 [Compound 2.8]

# Molecular target: T8, Subcomponent "s" of Human Complement Component 1 (h C1s) (Homo sapiens, UniProt P09871)
# T8 construct: purchased Calbiochem
# T8 sequence (P09871 438-688 limits assumed): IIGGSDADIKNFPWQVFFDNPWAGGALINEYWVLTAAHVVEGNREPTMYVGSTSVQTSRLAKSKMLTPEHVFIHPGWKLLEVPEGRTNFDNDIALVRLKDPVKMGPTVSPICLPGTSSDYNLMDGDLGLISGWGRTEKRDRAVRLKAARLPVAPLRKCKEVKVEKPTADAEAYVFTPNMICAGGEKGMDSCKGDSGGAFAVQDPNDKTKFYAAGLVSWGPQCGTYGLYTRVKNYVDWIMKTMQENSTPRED
# T8 sequence (P09871 16-437 partner limits assumed): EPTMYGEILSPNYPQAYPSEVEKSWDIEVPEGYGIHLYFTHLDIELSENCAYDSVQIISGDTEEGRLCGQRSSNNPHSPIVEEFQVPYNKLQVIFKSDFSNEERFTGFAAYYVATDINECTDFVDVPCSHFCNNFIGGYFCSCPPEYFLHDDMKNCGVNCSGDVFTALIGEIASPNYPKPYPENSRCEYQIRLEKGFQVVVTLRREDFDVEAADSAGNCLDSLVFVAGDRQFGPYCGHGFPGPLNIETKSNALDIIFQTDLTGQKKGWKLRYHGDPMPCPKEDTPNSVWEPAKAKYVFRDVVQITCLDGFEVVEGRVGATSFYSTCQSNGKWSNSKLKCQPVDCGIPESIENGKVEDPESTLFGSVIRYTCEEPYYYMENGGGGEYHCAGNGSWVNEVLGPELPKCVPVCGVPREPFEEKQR
# Test: Inhibition of human C1s (reference enzyme)
# Assay type: biochemical
# Conditions: S-2314 substrate; read-out: Ki h Cls
# Method: as §1, §2, §3
row,Ki,Structure (SMILES)
1,> 80 µM,NCc1ccc(Cl)cc1CNC(=O)CC[C@@H](NS(=O)(=O)Cc1ccccc1)C(=O)N1CCC[C@H]1C(=O)NCc1cc(Cl)ccc1CN [Compound 2.30]
2,> 50 µM,NCc1ccc(Cl)cc1CNC(=O)[C@@H]1CCCN1C(=O)[C@@H](CC(=O)N1CCCC1)NS(=O)(=O)Cc1ccccc1 [Compound 2.8]

# Molecular target: T9, Human urokinase type plasminogen activator (h u-PA) (Homo sapiens, UniProt P00749)
# T9 construct: purchased MEDAC GmbH Urokinase HS medac
# Test: Inhibition of human urokinase type plasminogen activator (reference enzyme)
# Assay type: biochemical
# Conditions: H-Glu-Gly-Arg-pNA substrate
# Method: as §1, §2, §3
row,Ki,Structure (SMILES)
1,> 40 µM,NCc1ccc(Cl)cc1CNC(=O)CC[C@@H](NS(=O)(=O)Cc1ccccc1)C(=O)N1CCC[C@H]1C(=O)NCc1cc(Cl)ccc1CN [Compound 2.30]
2,> 80 µM,NCc1ccc(Cl)cc1CNC(=O)[C@@H]1CCCN1C(=O)[C@@H](CC(=O)N1CCCC1)NS(=O)(=O)Cc1ccccc1 [Compound 2.8]

# Molecular target: T10, Human urinary kallikrein (h uKK) (Homo sapiens, UniProt P06870)
# T10 construct: purchased Lee Biosolutions
# T10 sequence (P06870 25-262): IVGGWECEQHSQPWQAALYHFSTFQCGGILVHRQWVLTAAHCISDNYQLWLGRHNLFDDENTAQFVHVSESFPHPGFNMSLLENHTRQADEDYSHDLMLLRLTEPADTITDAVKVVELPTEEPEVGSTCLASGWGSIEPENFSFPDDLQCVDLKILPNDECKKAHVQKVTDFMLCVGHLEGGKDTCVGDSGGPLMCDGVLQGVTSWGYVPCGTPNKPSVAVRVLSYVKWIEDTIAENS
# Test: Inhibition of human urinary kallikrein (reference enzyme)
# Assay type: biochemical
# Conditions: S-2266 substrate
# Method: as §1, §2, §3
row,Ki,Structure (SMILES)
1,> 20 µM,NCc1ccc(Cl)cc1CNC(=O)CC[C@@H](NS(=O)(=O)Cc1ccccc1)C(=O)N1CCC[C@H]1C(=O)NCc1cc(Cl)ccc1CN [Compound 2.30]
2,> 100 µM,NCc1ccc(Cl)cc1CNC(=O)[C@@H]1CCCN1C(=O)[C@@H](CC(=O)N1CCCC1)NS(=O)(=O)Cc1ccccc1 [Compound 2.8]
